Measurements reported in ChEMBL document CHEMBL1201862, “PubChem BioAssay data set” (2004).
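Dose response: 5 concentrations. Exposure: 48 h. Format: 96-well plates. Endpoint: linear interpolation; highest concentration if not reached. Abbreviation: GI50, concentration required for 50% inhibition of growth.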 Activity calls are given as the source filed them. No stated cut-off is given here; in the data, active = GI50 up to about 1.1 µM and inactive = higher.

How the values were obtained:
Assay in all cases: NCI tumour cell line growth inhibition, 48 h
[1] = tested on: MOLT-4
[2] = tested on: HCC 2998
[3] = tested on: LOX IMVI
[4] = tested on: SNB-19
[5] = tested on: RPMI-8226
[6] = tested on: T47D
[7] = tested on: HL-60
[8] = tested on: NCI-H226
[9] = tested on: CCRF-CEM
[10] = tested on: LXFL 529
[11] = tested on: SK-MEL-28
[12] = tested on: SNB-75
[13] = tested on: NCI-H460
[14] = tested on: KM12
[15] = tested on: SW-620
[16] = tested on: EKVX
[17] = tested on: HT-29
[18] = tested on: A549
[19] = tested on: SK-MEL-5
[20] = tested on: MCF7
[21] = tested on: UO-31
[22] = tested on: TK-10
[23] = tested on: DLD-1
[24] = tested on: DMS-273
[25] = tested on: HCT-116
[26] = tested on: OVCAR-4
[27] = tested on: IGROV-1
[28] = tested on: UACC-257
[29] = tested on: MDA-MB-435
[30] = tested on: SF-268
[31] = tested on: SK-MEL-2
[32] = tested on: HCT-15
[33] = tested on: SN12C
[34] = tested on: M14
[35] = tested on: HOP-62
[36] = tested on: OVCAR-5
[37] = tested on: DU-145
[38] = tested on: COLO 205
[39] = tested on: RXF 393
[40] = tested on: MDA-MB-231
[41] = tested on: SR
[42] = tested on: HOP-92
[43] = tested on: MDA-N
[44] = tested on: SF-539
[45] = tested on: OVCAR-8
[46] = tested on: U-251
[47] = tested on: SNB-78
[48] = tested on: Malme-3M
[49] = tested on: A498
[50] = tested on: OVCAR-3
[51] = tested on: NCI-H23
[52] = tested on: 786-0
[53] = tested on: K562
[54] = tested on: Hs-578T
[55] = tested on: SF-295
[56] = tested on: ACHN
[57] = tested on: UACC-62
[58] = tested on: CAKI-1
[59] = tested on: NCI-H522
[60] = tested on: SK-OV-3
[61] = tested on: PC-3
[62] = tested on: BT-549
[63] = tested on: NCI/ADR-RES
[64] = tested on: XF498
[65] = tested on: KM-20L2
[66] = tested on: M19-MEL
[67] = tested on: DMS-114

Q: What does the source list for `Cc1cc2c(c3c1c1ccccc1n3C)C(=O)C=CC2=O`?
A: GI50 [1]: 2 µM (inactive); GI50 [2]: 33 µM (inactive); GI50 [3]: 16.9 µM (inactive); GI50 [4]: 63.7 µM (inactive); GI50 [5]: 2.82 µM (inactive); GI50 [6]: 13 µM (inactive); GI50 [7]: 1.45 µM (inactive); GI50 [8]: 40.3 µM (inactive); GI50 [9]: 0.631 µM (active); GI50 [10]: 5.6 µM (inactive); GI50 [11]: 19.9 µM (inactive); GI50 [12]: 41.6 µM (inactive); GI50 [13]: 33.9 µM (inactive); GI50 [14]: 25.2 µM (inactive); GI50 [15]: 7.6 µM (inactive); GI50 [16]: > 75.5 µM (inactive); GI50 [17]: 31 µM (inactive); GI50 [18]: 44.6 µM (inactive); GI50 [19]: 32.3 µM (inactive); GI50 [20]: 10.9 µM (inactive); GI50 [21]: 16.1 µM (inactive); GI50 [22]: 24.2 µM (inactive); GI50 [23]: 6.32 µM (inactive); GI50 [24]: 22.5 µM (inactive); GI50 [25]: 18.8 µM (inactive); GI50 [26]: 12 µM (inactive); GI50 [27]: 39.6 µM (inactive); GI50 [28]: 18.2 µM (inactive); GI50 [29]: 28.8 µM (inactive); GI50 [30]: 23.9 µM (inactive); GI50 [31]: 21.6 µM (inactive); GI50 [32]: 13.7 µM; GI50 [33]: 27.2 µM (inactive); GI50 [34]: 25.6 µM (inactive); GI50 [35]: 44.1 µM (inactive); GI50 [36]: 43.7 µM (inactive); GI50 [37]: 58.9 µM (inactive); GI50 [38]: 29.1 µM (inactive); GI50 [39]: 15.3 µM (inactive); GI50 [40]: 25.7 µM (inactive); GI50 [41]: 0.885 µM (active); GI50 [42]: 12.9 µM (inactive); GI50 [43]: 24.5 µM (inactive); GI50 [44]: 23.8 µM (inactive); GI50 [45]: 22.9 µM (inactive); GI50 [46]: 19.3 µM (inactive); GI50 [47]: > 54.1 µM (inactive); GI50 [48]: 28.3 µM (inactive); GI50 [49]: 47.5 µM (inactive); GI50 [50]: 11.5 µM (inactive); GI50 [51]: 10.7 µM (inactive); GI50 [52]: 5.6 µM (inactive); GI50 [53]: 3.15 µM (inactive); GI50 [54]: 24.8 µM (inactive); GI50 [55]: 32.4 µM (inactive); GI50 [56]: 21.3 µM (inactive); GI50 [57]: 19.6 µM (inactive); GI50 [58]: 23.2 µM (inactive); GI50 [59]: 13.9 µM (inactive); GI50 [60]: 55.5 µM (inactive); GI50 [61]: 16.9 µM (inactive); GI50 [62]: 14.1 µM (inactive); GI50 [63]: 35.8 µM (inactive); GI50 [64]: 17.7 µM (inactive)

Q: With `CCOC(=O)CP(=S)(S)c1ccccc1` (stereo unspecified) as the molecule, how does the GI50 [1] read?
A: > 100 µM (inactive)

Q: And the GI50 [3]?
A: > 100 µM (inactive)

Q: And the GI50 [4]?
A: > 100 µM (inactive)

Q: And the GI50 [7]?
A: > 100 µM (inactive)

Q: And the GI50 [8]?
A: > 100 µM (inactive)

Q: What about the GI50 [9] of the same molecule?
A: > 100 µM (inactive)

Q: And the GI50 [10]?
A: > 100 µM (inactive)

Q: And the GI50 [11]?
A: > 100 µM (inactive)

Q: And the GI50 [13]?
A: > 100 µM (inactive)

Q: What about the GI50 [14] of the same molecule?
A: > 100 µM (inactive)

Q: What about the GI50 [15] of the same molecule?
A: > 100 µM (inactive)

Q: And the GI50 [16]?
A: > 100 µM (inactive)

Q: What about the GI50 [65] of the same molecule?
A: > 100 µM (inactive)

Q: What about the GI50 [17] of the same molecule?
A: > 100 µM (inactive)

Q: And the GI50 [18]?
A: > 100 µM (inactive)

Q: What about the GI50 [19] of the same molecule?
A: > 100 µM (inactive)

Q: And the GI50 [21]?
A: > 100 µM (inactive)

Q: And the GI50 [22]?
A: > 100 µM (inactive)

Q: What about the GI50 [23] of the same molecule?
A: > 100 µM (inactive)

Q: And the GI50 [24]?
A: > 100 µM (inactive)

Q: What about the GI50 [26] of the same molecule?
A: > 100 µM (inactive)

Q: And the GI50 [28]?
A: > 100 µM (inactive)

Q: And the GI50 [30]?
A: > 100 µM (inactive)

Q: What about the GI50 [31] of the same molecule?
A: > 100 µM (inactive)

Q: And the GI50 [33]?
A: > 100 µM (inactive)

Q: What about the GI50 [35] of the same molecule?
A: > 100 µM (inactive)

Q: What about the GI50 [36] of the same molecule?
A: > 100 µM (inactive)

Q: And the GI50 [38]?
A: > 100 µM (inactive)

Q: What about the GI50 [66] of the same molecule?
A: > 100 µM (inactive)

Q: What about the GI50 [39] of the same molecule?
A: > 100 µM (inactive)

Q: And the GI50 [41]?
A: > 100 µM (inactive)

Q: And the GI50 [42]?
A: > 100 µM (inactive)

Q: What about the GI50 [44] of the same molecule?
A: > 100 µM (inactive)

Q: And the GI50 [45]?
A: > 100 µM (inactive)

Q: And the GI50 [46]?
A: > 100 µM (inactive)

Q: And the GI50 [47]?
A: > 100 µM (inactive)

Q: And the GI50 [48]?
A: > 100 µM (inactive)

Q: And the GI50 [49]?
A: > 100 µM (inactive)

Q: And the GI50 [51]?
A: > 100 µM (inactive)

Q: And the GI50 [52]?
A: > 100 µM (inactive)

Q: And the GI50 [53]?
A: > 100 µM (inactive)

Q: What about the GI50 [67] of the same molecule?
A: > 100 µM (inactive)

Q: What about the GI50 [55] of the same molecule?
A: > 10 µM (inactive)

Q: What about the GI50 [56] of the same molecule?
A: > 100 µM (inactive)

Q: What about the GI50 [57] of the same molecule?
A: > 100 µM (inactive)

Q: And the GI50 [58]?
A: > 100 µM (inactive)

Q: And the GI50 [59]?
A: > 100 µM (inactive)

Q: What about the GI50 [60] of the same molecule?
A: > 100 µM (inactive)

Q: And the GI50 [64]?
A: 45.2 µM (inactive)

Q: Which GI50 [1] does the source give for `COC(OC)c1cc2c(cc1C(=O)[C@@]13CCC[C@@H]1NC(=O)O3)OCO2` here?
A: > 100 µM (inactive)

Q: What about the GI50 [4] of the same molecule?
A: 91.2 µM (inactive)

Q: What about the GI50 [7] of the same molecule?
A: > 100 µM (inactive)

Q: What about the GI50 [8] of the same molecule?
A: > 100 µM (inactive)

Q: And the GI50 [9]?
A: > 100 µM (inactive)

Q: And the GI50 [11]?
A: > 100 µM (inactive)

Q: And the GI50 [12]?
A: 49 µM (inactive)

Q: What about the GI50 [13] of the same molecule?
A: > 100 µM (inactive)

Q: And the GI50 [14]?
A: > 100 µM (inactive)

Q: And the GI50 [15]?
A: > 100 µM (inactive)

Q: What about the GI50 [16] of the same molecule?
A: > 100 µM (inactive)

Q: What about the GI50 [17] of the same molecule?
A: > 100 µM (inactive)

Q: What about the GI50 [19] of the same molecule?
A: 41.2 µM (inactive)

Q: And the GI50 [21]?
A: 60.3 µM (inactive)

Q: What about the GI50 [22] of the same molecule?
A: > 100 µM (inactive)

Q: And the GI50 [23]?
A: 79.6 µM (inactive)

Q: And the GI50 [24]?
A: > 100 µM (inactive)

Q: And the GI50 [25]?
A: > 100 µM (inactive)

Q: And the GI50 [26]?
A: > 100 µM (inactive)

Q: And the GI50 [27]?
A: 73.5 µM (inactive)

Q: What about the GI50 [28] of the same molecule?
A: > 100 µM (inactive)

Q: What about the GI50 [30] of the same molecule?
A: > 100 µM (inactive)

Q: And the GI50 [31]?
A: > 100 µM (inactive)

Q: What about the GI50 [33] of the same molecule?
A: > 100 µM (inactive)

Q: What about the GI50 [34] of the same molecule?
A: > 100 µM (inactive)

Q: And the GI50 [35]?
A: > 100 µM (inactive)

Q: And the GI50 [36]?
A: > 100 µM (inactive)

Q: And the GI50 [66]?
A: > 100 µM (inactive)

Q: What about the GI50 [39] of the same molecule?
A: 52.2 µM (inactive)

Q: And the GI50 [42]?
A: > 100 µM (inactive)

Q: What about the GI50 [44] of the same molecule?
A: > 100 µM (inactive)

Q: And the GI50 [45]?
A: > 100 µM (inactive)

Q: What about the GI50 [46] of the same molecule?
A: > 100 µM (inactive)

Q: And the GI50 [47]?
A: > 100 µM (inactive)

Q: What about the GI50 [48] of the same molecule?
A: 22.6 µM (inactive)

Q: And the GI50 [49]?
A: > 100 µM (inactive)

Q: What about the GI50 [50] of the same molecule?
A: > 100 µM (inactive)

Q: What about the GI50 [51] of the same molecule?
A: 78.5 µM (inactive)

Q: And the GI50 [52]?
A: > 100 µM (inactive)

Q: What about the GI50 [53] of the same molecule?
A: > 100 µM (inactive)

Q: And the GI50 [67]?
A: > 100 µM (inactive)

Q: And the GI50 [55]?
A: > 100 µM (inactive)

Q: What about the GI50 [56] of the same molecule?
A: > 100 µM (inactive)

Q: And the GI50 [57]?
A: 34.1 µM (inactive)

Q: What about the GI50 [58] of the same molecule?
A: > 100 µM (inactive)

Q: What about the GI50 [59] of the same molecule?
A: > 100 µM (inactive)

Q: What about the GI50 [60] of the same molecule?
A: > 100 µM (inactive)

Q: What about the GI50 [64] of the same molecule?
A: 84.5 µM (inactive)
